According to PMC11036874, “In vitro characterization of [^125I]HY-3-24, a selective ligand for the dopamine D3 receptor” (Frontiers in Neuroscience, 2024):

Assays:
human D2R = target: T1, human D2R (Homo sapiens, UniProt P14416); assay: D2R radioligand binding assay with [125I]IABN; conditions: human D2R transfected HEK293 cell membranes, mean ± SEM of three experiments
T1 construct: expressed in transfected cells; host or cells: HEK293
Protocol: The dopamine receptor binding assay was performed according to previous studies ([Luedtke et al., 2000]; [Vangveravong et al., 2006]; [Reilly et al., 2017]), and human D2R or D3R or D4 transfected HEK293 cells were used for dopamine receptor binding assay. The cells were grown in Dulbecco’s Modified Eagle Medium including 10% FBS, 0.1% Penn Strep, […] of geneticin (G418) for human D2R or D3R transfected HEK293 cells, and […] of puromycin for human D4 HEK293 cells at 5% CO2, 37°C. The cells were collected by centrifuge (6,000 × g, 10 min), and the supernatant was discarded. Cold homogenization buffer (50 mM Na Hepes, 0.1 mM EDTA, 1 mM DTT, pH 7.4) was added into the pellet and homogenized by a polytron (Brinkmann Instruments, Westbury, NY, United States), and centrifuged at 40,000 × g for 10 min. This process was repeated two more times to get final pellet, and the membranes were then resuspended with HB buffer including 5 mM MgCl2 and stored at −80°C until use.
HY-3-24 was prepared in 10^−5 to 10^−11 M concentration range with assay buffer (50 mM Tris–HCl, 150 mM NaCl, 10 mM EDTA, pH 7.5). […] The membrane was washed with cold buffer (three times), and collected filters were counted on a gamma counter (GMI, Minnesota, United States). The results were analyzed by nonlinear regression, and the data were reported mean ± SEM values by three independent experiments.

[1] = target: T2, norepinephrine transporter (Homo sapiens, UniProt P23975); assay: PDSP binding screen; conditions: HCl salt
T2 construct: Psychoactive Drug Screening Program (PDSP)
Text: (§1) The binding of HY-3-24 to various GPCRs was investigated through comprehensive screening by Psychoactive Drug Screening Program (PDSP) (Supplementary Table S1) ([Besnard et al., 2012]). These GPCRs included major neurotransmitter receptors family (e.g., dopamine, serotonin, histamine, opioid, muscarinic, adrenergic, sigma receptors, ɤ-amino-butyric acid type A, and benzodiazepine receptors) and transporters (e.g., dopamine, norepinephrine, and serotonin transporter).

serotonin 5-HT6 = target: T3, serotonin 5-HT6 (Homo sapiens, UniProt P50406); assay: PDSP binding screen; conditions: HCl salt
T3 construct: Psychoactive Drug Screening Program (PDSP)
Text: as §1

dopamine D1 = dopamine D1 (Homo sapiens, UniProt P21728); assay: PDSP binding screen; conditions: HCl salt
Text: as §1

[2] = target: benzodiazepine rat brain site; assay: PDSP binding screen; conditions: HCl salt
Text: as §1

serotonin 5-HT1D = serotonin 5-HT1D (Homo sapiens, UniProt P28221); assay: PDSP binding screen; conditions: HCl salt
Text: as §1

dopamine D3 = dopamine D3 (Homo sapiens, UniProt P35462); assay: PDSP binding screen; conditions: HCl salt, [3H]N-methylspiperone
Sequence of dopamine D3 (P35462 whole entry): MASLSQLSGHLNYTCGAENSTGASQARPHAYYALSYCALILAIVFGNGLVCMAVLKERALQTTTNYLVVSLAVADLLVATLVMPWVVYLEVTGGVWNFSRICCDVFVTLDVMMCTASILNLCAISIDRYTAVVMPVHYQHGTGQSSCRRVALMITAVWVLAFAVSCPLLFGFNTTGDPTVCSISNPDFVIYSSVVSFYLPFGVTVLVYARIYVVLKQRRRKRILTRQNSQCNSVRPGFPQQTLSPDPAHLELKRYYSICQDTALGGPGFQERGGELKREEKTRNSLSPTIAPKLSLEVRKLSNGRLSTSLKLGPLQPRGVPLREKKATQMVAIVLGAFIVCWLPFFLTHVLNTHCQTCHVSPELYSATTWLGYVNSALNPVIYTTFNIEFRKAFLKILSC
Text: as §1

adrenergic alpha2A = target: T4, adrenergic alpha2A (Homo sapiens, UniProt P08913); assay: PDSP binding screen; conditions: HCl salt
T4 construct: Psychoactive Drug Screening Program (PDSP)
T4 sequence (P08913 whole entry): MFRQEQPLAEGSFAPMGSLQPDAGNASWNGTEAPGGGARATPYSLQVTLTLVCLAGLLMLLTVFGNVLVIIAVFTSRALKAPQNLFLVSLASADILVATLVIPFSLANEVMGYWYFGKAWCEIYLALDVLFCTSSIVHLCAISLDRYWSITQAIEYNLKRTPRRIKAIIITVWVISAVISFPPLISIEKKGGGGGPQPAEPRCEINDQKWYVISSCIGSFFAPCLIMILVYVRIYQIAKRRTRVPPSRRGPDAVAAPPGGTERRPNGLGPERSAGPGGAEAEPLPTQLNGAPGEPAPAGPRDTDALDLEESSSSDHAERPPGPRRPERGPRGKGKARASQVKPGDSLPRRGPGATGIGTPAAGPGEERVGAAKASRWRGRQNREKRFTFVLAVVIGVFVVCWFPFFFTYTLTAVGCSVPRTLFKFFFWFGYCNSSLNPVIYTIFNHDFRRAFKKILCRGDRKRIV
Text: as §1

dopamine D2 = dopamine D2 (Homo sapiens, UniProt P14416); assay: PDSP binding screen; conditions: HCl salt, [3H]N-methylspiperone
Sequence of dopamine D2 (P14416 whole entry): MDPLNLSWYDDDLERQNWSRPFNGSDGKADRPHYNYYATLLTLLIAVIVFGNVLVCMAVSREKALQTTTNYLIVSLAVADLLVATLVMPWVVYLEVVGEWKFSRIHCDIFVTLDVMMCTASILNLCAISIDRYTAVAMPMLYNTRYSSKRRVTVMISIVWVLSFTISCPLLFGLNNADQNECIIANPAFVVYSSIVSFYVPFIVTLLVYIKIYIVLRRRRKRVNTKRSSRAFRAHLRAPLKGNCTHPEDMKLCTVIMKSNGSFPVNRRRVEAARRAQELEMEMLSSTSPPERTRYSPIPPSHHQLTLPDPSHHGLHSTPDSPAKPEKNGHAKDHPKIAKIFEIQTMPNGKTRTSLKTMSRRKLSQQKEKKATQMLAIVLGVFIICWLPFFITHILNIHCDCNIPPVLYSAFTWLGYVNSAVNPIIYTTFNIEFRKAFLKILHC
Text: as §1

sigma2 = target: T5, sigma2 (Homo sapiens, UniProt Q5BJF2); assay: PDSP binding screen; conditions: HCl salt
T5 construct: Psychoactive Drug Screening Program (PDSP)
T5 sequence (Q5BJF2 whole entry): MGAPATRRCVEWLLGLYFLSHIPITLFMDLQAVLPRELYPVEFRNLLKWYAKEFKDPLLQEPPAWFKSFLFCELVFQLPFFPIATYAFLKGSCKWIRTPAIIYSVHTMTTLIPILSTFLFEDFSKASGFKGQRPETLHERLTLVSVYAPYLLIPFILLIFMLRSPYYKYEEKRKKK
Text: as §1

histamine H1 = target: T6, histamine H1 (Homo sapiens, UniProt P35367); assay: PDSP binding screen; conditions: HCl salt
T6 construct: Psychoactive Drug Screening Program (PDSP)
T6 sequence (P35367 whole entry): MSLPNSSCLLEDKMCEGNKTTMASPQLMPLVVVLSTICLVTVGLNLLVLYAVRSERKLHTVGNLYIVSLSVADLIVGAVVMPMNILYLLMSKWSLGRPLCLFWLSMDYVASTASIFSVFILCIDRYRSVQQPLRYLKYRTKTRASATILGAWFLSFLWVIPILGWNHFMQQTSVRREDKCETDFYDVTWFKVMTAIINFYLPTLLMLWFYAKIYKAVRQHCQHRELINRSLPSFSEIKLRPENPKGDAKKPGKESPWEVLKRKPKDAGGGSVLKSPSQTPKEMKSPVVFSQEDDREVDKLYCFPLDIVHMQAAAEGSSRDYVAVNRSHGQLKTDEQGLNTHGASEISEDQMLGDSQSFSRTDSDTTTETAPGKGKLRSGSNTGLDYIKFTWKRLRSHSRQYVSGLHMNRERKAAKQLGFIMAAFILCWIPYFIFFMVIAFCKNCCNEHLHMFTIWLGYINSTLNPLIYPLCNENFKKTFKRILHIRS
Text: as §1

adrenergic beta2 = target: T7, adrenergic beta2 (Homo sapiens, UniProt P07550); assay: PDSP binding screen; conditions: HCl salt
T7 construct: Psychoactive Drug Screening Program (PDSP)
Text: as §1

serotonin transporter = target: T8, serotonin transporter (Homo sapiens, UniProt P31645); assay: PDSP binding screen; conditions: HCl salt
T8 construct: Psychoactive Drug Screening Program (PDSP)
T8 sequence (P31645 whole entry): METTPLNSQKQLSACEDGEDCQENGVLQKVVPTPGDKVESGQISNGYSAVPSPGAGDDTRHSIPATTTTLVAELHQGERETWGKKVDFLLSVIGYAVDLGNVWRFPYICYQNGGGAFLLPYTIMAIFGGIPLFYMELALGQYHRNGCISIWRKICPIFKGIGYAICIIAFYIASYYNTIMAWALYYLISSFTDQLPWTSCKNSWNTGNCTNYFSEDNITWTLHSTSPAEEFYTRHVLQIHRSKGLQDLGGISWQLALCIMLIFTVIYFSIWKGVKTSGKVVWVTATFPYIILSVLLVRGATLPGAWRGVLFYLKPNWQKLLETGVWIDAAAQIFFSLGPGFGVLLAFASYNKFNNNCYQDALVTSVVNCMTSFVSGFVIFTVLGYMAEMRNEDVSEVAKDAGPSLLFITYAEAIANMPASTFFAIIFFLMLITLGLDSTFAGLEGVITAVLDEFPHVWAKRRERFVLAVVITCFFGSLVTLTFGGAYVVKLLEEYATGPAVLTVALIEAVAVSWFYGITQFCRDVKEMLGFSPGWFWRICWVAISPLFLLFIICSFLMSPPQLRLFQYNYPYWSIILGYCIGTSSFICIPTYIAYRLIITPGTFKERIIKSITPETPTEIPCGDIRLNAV
Text: as §1

serotonin 5-HT2A = serotonin 5-HT2A (Homo sapiens, UniProt P28223); assay: PDSP binding screen; conditions: HCl salt
Text: as §1

opioid KOR = target: T9, opioid KOR (Homo sapiens, UniProt P41145); assay: PDSP binding screen; conditions: HCl salt
T9 construct: Psychoactive Drug Screening Program (PDSP)
T9 sequence (P41145 whole entry): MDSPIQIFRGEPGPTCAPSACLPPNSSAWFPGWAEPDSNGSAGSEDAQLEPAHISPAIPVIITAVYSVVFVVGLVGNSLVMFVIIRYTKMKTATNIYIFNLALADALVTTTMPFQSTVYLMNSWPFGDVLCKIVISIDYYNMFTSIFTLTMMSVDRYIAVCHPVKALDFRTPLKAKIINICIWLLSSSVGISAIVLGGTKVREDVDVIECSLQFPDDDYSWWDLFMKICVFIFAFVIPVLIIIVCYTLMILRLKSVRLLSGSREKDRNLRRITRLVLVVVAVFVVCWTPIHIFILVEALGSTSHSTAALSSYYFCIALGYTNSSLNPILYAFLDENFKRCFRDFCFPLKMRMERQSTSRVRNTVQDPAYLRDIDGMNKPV
Text: as §1

serotonin 5-HT2C = serotonin 5-HT2C (Homo sapiens, UniProt P28335); assay: PDSP binding screen; conditions: HCl salt
Text: as §1

dopamine D4 = dopamine D4 (Homo sapiens, UniProt P21917); assay: PDSP binding screen; conditions: HCl salt
Text: as §1

benzodiazepine receptor = assay: PDSP binding screen; conditions: HCl salt
Text: as §1

sigma1 = target: T10, sigma1 (Homo sapiens, UniProt Q99720); assay: PDSP binding screen; conditions: HCl salt
T10 construct: Psychoactive Drug Screening Program (PDSP)
T10 sequence (Q99720 whole entry): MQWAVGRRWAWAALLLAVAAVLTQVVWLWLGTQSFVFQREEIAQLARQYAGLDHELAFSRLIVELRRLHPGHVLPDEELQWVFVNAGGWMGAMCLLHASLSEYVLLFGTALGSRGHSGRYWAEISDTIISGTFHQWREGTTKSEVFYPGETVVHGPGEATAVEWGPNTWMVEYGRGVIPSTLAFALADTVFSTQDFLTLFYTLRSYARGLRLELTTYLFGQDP
Text: as §1

Muscarinic M2 = target: T11, Muscarinic M2 (Homo sapiens, UniProt P08172); assay: PDSP binding screen; conditions: HCl salt
T11 construct: Psychoactive Drug Screening Program (PDSP)
Text: as §1

serotonin 5-HT3 = serotonin 5-HT3 (Homo sapiens, UniProt P46098); assay: PDSP binding screen; conditions: HCl salt
Sequence of serotonin 5-HT3 (P46098 24-478): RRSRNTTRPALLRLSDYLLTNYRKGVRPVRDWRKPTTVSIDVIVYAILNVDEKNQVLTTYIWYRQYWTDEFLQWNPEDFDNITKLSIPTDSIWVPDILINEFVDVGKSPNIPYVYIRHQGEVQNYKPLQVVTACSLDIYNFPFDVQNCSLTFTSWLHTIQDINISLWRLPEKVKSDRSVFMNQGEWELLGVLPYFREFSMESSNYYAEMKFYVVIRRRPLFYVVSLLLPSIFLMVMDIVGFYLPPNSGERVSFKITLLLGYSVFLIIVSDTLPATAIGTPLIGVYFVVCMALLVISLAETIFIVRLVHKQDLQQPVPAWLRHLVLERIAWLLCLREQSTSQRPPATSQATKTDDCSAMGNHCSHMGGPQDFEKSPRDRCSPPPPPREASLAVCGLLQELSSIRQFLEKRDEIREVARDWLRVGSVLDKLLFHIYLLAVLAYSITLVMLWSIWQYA
Text: as §1

serotonin 5-HT2B = serotonin 5-HT2B (Homo sapiens, UniProt P41595); assay: PDSP binding screen; conditions: HCl salt
Sequence of serotonin 5-HT2B (P41595 whole entry): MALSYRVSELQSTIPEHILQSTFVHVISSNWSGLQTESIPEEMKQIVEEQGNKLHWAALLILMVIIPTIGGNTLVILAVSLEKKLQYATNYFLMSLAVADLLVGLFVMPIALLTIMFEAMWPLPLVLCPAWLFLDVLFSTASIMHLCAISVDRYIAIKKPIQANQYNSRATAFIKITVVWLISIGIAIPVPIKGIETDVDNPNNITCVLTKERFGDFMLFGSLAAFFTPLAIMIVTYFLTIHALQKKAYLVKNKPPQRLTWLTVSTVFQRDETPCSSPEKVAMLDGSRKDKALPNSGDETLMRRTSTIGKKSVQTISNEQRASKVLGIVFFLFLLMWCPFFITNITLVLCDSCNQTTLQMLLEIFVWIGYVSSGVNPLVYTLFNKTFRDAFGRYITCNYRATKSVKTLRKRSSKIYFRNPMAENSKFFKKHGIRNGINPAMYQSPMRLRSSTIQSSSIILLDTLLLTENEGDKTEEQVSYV
Text: as §1

adrenergic alpha2C = target: T12, adrenergic alpha2C (Homo sapiens, UniProt P18825); assay: PDSP binding screen; conditions: HCl salt
T12 construct: Psychoactive Drug Screening Program (PDSP)
Text: as §1

Muscarinic M3 = target: T13, Muscarinic M3 (Homo sapiens, UniProt P20309); assay: PDSP binding screen; conditions: HCl salt
T13 construct: Psychoactive Drug Screening Program (PDSP)
Text: as §1

Muscarinic M4 = target: T14, Muscarinic M4 (Homo sapiens, UniProt P08173); assay: PDSP binding screen; conditions: HCl salt
T14 construct: Psychoactive Drug Screening Program (PDSP)
Text: as §1

Muscarinic M5 = target: T15, Muscarinic M5 (Homo sapiens, UniProt P08912); assay: PDSP binding screen; conditions: HCl salt
T15 construct: Psychoactive Drug Screening Program (PDSP)
T15 sequence (P08912 whole entry): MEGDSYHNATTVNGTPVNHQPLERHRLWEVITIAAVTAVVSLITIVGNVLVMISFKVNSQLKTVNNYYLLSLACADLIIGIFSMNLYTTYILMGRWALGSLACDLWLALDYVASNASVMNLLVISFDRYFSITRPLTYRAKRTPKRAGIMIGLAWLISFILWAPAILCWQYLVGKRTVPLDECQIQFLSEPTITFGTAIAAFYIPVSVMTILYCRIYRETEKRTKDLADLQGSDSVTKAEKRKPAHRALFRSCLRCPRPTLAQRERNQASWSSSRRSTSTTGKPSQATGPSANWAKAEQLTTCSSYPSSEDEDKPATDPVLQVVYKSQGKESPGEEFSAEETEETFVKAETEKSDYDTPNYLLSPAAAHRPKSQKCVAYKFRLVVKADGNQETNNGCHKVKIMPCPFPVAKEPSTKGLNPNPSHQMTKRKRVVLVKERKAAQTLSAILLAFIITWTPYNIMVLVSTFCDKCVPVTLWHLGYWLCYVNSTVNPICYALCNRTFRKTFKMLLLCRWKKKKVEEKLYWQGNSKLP
Text: as §1

T1 sequence (P14416 whole entry): as the sequence (P14416 whole entry) above

**Q.** `CCN(CCCNC(=O)c1ccc(-c2ccncc2)cc1)CCNC(=O)c1cc(I)cc(OC)c1OC` [HY-3-24, N-(2-(Ethyl(3-(4-(pyridin-4-yl)benzamido)propyl)amino)ethyl)-5-iodo-2,3-dimethoxybenzamide] was tested. Which Ki (human D2R) did it give?
**A.** 86.7 ± 11.9 nM

**Q.** And the Ki [1]?
**A.** 5950 nM

**Q.** And the Ki (serotonin 5-HT6)?
**A.** 1040 nM

**Q.** What about the “Ki D1” value (dopamine D1) of the same compound?
**A.** N.A. (not active, less than 50% inhibition in primary binding assays at 10 µM)

**Q.** And the “Ki benzodiazepine rat brain site” value [2]?
**A.** N.A. (not active, less than 50% inhibition in primary binding assays at 10 µM)

**Q.** What about the Ki (serotonin 5-HT1D) of the same compound?
**A.** 1690 nM

**Q.** What about the Ki (dopamine D3) of the same compound?
**A.** 1.2 nM

**Q.** And the Ki (adrenergic alpha2A)?
**A.** 2150 nM

**Q.** And the Ki (dopamine D2)?
**A.** 43 nM

**Q.** What about the Ki (sigma2) of the same compound?
**A.** 2310 nM

**Q.** And the Ki (histamine H1)?
**A.** 244 nM

**Q.** And the Ki (adrenergic beta2)?
**A.** 5830 nM

**Q.** And the Ki (serotonin transporter)?
**A.** 677 nM

**Q.** And the Ki (serotonin 5-HT2A)?
**A.** 310 nM

**Q.** What about the Ki (opioid KOR) of the same compound?
**A.** 1550 nM

**Q.** What about the Ki (serotonin 5-HT2C) of the same compound?
**A.** 613 nM

**Q.** What about the Ki (dopamine D4) of the same compound?
**A.** 1860 nM

**Q.** What about the Ki (benzodiazepine receptor) of the same compound?
**A.** 5640 nM

**Q.** And the Ki (sigma1)?
**A.** 1950 nM

**Q.** And the Ki (Muscarinic M2)?
**A.** 832 nM

**Q.** What about the Ki (serotonin 5-HT3) of the same compound?
**A.** 904 nM

**Q.** And the Ki (serotonin 5-HT2B)?
**A.** 38 nM

**Q.** What about the Ki (adrenergic alpha2C) of the same compound?
**A.** 1900 nM

**Q.** What about the Ki (Muscarinic M3) of the same compound?
**A.** 1780 nM

**Q.** And the Ki (Muscarinic M4)?
**A.** 544 nM

**Q.** What about the Ki (Muscarinic M5) of the same compound?
**A.** 118 nM
